Laboratory results as given in patent US8815882B2, “Pyrazole aminopyrimidine derivatives as LRRK2 modulators” (Genentech, Inc., priority 2010, dated 2014).
Read-outs that look alike come from different tables or passages of the source.

Target: T1, LRRK2 (Homo sapiens, UniProt Q5S007, G2019S)
T1 construct: purchased Invitrogen PV4882 (lot 567054A)
Assay: In Vitro LRRK2 Assay (LabChip 3000, fluorescently-labeled peptide substrate, ATP)
Format: biochemical
Procedure, shortened: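 Read-out was LabChip capillary electrophoresis, resolving phospho- from non-phospho-peptide by fluorescence intensity. The kinase reaction combined enzyme, ATP, test compound and labeled peptide (4 μM working dilution) for 2 h in darkness before stop solution. Values were reported as Ki, from a tight-binding model with Et, S and Km, or as IC50 or percent inhibition.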

[1] = Table 9, LRRK2 Ki (micromolar), read-out: LRRK2 Ki (KI)
[2] = read-out: LRRK2 Ki given in the example

T1 sequence (Q5S007 whole entry G2019S): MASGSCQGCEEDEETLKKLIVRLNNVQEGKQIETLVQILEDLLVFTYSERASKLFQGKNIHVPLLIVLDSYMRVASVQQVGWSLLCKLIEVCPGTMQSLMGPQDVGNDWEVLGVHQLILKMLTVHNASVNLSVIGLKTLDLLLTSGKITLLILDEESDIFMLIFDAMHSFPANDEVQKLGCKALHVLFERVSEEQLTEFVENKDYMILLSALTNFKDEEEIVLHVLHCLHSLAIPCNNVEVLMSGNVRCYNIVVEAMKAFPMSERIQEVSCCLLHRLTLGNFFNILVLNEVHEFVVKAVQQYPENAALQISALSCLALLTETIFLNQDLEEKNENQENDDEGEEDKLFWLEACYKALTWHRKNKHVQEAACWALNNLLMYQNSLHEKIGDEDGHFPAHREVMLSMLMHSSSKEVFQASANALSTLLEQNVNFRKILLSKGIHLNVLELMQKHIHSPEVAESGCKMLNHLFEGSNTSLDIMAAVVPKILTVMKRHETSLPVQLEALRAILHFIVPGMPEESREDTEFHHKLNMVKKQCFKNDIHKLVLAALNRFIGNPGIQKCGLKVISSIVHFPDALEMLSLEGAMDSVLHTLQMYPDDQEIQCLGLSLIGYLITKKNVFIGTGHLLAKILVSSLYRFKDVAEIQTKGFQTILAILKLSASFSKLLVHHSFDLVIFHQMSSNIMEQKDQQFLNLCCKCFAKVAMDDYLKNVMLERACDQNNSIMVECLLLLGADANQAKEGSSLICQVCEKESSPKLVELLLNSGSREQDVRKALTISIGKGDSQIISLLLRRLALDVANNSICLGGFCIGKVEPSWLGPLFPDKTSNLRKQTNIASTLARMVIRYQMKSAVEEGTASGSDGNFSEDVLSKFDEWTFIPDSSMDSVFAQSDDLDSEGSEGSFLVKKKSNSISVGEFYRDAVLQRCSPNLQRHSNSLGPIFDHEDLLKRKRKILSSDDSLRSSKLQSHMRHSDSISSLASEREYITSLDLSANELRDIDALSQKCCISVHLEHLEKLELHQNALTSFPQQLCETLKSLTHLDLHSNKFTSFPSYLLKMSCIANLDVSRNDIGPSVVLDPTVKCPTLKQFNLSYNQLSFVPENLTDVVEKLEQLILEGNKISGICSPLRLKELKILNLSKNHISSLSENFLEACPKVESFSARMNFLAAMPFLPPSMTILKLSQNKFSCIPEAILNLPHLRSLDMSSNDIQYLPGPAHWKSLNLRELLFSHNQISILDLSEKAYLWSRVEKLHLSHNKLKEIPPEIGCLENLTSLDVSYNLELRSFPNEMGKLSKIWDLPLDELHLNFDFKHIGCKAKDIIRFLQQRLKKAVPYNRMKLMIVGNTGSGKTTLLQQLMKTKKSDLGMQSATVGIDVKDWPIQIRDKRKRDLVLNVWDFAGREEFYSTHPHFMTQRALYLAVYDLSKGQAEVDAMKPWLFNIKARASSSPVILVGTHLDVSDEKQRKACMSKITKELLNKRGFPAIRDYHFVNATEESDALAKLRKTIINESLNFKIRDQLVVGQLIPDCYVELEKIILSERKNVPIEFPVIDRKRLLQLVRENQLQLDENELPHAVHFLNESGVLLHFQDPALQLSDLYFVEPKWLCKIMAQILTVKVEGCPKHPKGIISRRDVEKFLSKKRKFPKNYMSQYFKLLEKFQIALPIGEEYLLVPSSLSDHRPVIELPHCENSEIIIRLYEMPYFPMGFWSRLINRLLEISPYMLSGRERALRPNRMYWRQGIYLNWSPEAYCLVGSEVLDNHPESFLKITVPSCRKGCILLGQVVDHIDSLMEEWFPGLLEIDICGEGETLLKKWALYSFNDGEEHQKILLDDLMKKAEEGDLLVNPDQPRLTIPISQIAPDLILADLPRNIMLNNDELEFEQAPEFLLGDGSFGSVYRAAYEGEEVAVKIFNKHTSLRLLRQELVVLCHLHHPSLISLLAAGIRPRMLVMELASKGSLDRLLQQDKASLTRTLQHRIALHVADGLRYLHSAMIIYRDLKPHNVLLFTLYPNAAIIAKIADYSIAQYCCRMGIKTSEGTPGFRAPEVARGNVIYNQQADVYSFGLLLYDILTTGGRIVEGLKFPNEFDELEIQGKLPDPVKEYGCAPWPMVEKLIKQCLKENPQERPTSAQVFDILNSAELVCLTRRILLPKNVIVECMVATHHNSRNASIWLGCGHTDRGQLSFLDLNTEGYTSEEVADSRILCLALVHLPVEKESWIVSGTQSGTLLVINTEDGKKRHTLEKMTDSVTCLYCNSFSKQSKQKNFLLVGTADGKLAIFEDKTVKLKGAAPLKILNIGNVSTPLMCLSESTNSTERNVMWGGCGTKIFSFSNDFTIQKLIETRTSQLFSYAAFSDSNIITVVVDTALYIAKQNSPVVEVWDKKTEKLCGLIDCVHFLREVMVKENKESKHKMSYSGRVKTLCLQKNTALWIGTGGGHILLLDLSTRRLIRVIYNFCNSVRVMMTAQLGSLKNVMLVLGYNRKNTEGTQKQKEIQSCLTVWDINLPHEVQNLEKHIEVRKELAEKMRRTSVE

For `CNc1nc(Nc2cn(C3CCOCC3)nc2C)ncc1C#N` [Example 362, 2-(3-methyl-1-(tetrahydro-2H-pyran-4-yl)-1H-pyrazol-4-ylamino)-4-(methylamino) pyrimidine-5-carbonitrile], the Ki [1] was 86 nM.
`CCNc1nc(Nc2cnn(CC)c2C)ncc1C#N` [Example 363, 2-(1-ethyl-5-methyl-1H-pyrazol-4-ylamino)-4-(ethylamino) pyrimidine-5-carbonitrile] gave a Ki [1] of 6 nM.
With `CNc1nc(Nc2cn(C(F)F)nc2C)ncc1C#N` [Example 365, 2-(1-(difluoromethyl)-3-methyl-1H-pyrazol-4-ylamino)-4-(methylamino) pyrimidine-5-carbonitrile] the Ki [1] was 35 nM.
Work on `CCCn1ncc(Nc2ncc(C#N)c(NC)n2)c1C` [Example 366, 2-(5-methyl-1-propyl-1H-pyrazol-4-ylamino)-4-(methylamino) pyrimidine-5-carbonitrile] yielded a Ki [1] of 5.4 nM.
`CNc1nc(Nc2cn(-c3cc(F)cc(F)c3)nc2C)ncc1C#N` [Example 367, 2-(1-(3,5-difluorophenyl)-3-methyl-1H-pyrazol-4-ylamino)-4-(methylamino) pyrimidine-5-carbonitrile] gave a Ki [1] of 1.8 nM.
With `CNc1nc(Nc2cn(-c3ccc(Cl)cc3)nc2C)ncc1C#N` [Example 368, 2-(1-(4-chlorophenyl)-3-methyl-1H-pyrazol-4-ylamino)-4-(methylamino) pyrimidine-5-carbonitrile] the Ki [1] was 82 nM.
Work on `CNc1nc(Nc2cnn(-c3ccc(Cl)cc3)c2C)ncc1C#N` [Example 369, 2-(1-(4-chlorophenyl)-5-methyl-H-pyrazol-4-ylamino)-4-(methylamino) pyrimidine-5-carbonitrile] yielded a Ki [1] of 2.5 nM.
Work on `CNc1nc(Nc2cn(-c3ccccn3)nc2C)ncc1C#N` [Example 370, 2-(3-methyl-1-(pyridin-2-yl)-1H-pyrazol-4-ylamino)-4-(methylamino) pyrimidine-5-carbonitrile] yielded a Ki [1] of 41.5 nM.
In the case of `CCNc1nc(Nc2cnn(C3CCOCC3)c2C)ncc1C#N` [Example 371, 4-(ethylamino)-2-(5-methyl-1-(tetrahydro-2H-pyran-4-yl)-1H-pyrazol-4-ylamino) pyrimidine-5-carbonitrile], the Ki [1] is reported as 5.2 nM.
For `CCNc1nc(Nc2cn(C3CCOCC3)nc2C)ncc1C#N` [Example 372, 4-(ethylamino)-2-(3-methyl-1-(tetrahydro-2H-pyran-4-yl)-1H-pyrazol-4-ylamino) pyrimidine-5-carbonitrile], the Ki [1] was 24 nM.
For `CCNc1nc(Nc2cn(C3COC3)nc2C)ncc1C#N` [Example 373, 4-(ethylamino)-2-(3-methyl-1-(oxetan-3-yl)-1H-pyrazol-4-ylamino) pyrimidine-5-carbonitrile], the Ki [1] was 22.8 nM.
In the case of `CNc1nc(Nc2cnn(C(C)C)c2C)ncc1C#N` [Example 374, 2-(1-isopropyl-5-methyl-1H-pyrazol-4-ylamino)-4-(methylamino) pyrimidine-5-carbonitrile], the Ki [1] is reported as 15.8 nM.
In the case of `COc1nc(Nc2cnn(C)c2C)ncc1C#N` [Example 375, 2-(1,5-dimethyl-1H-pyrazol-4-ylamino)-4-methoxy-pyrimidine-5-carbonitrile], the Ki [1] is reported as 145 nM.
Compound `Cc1c(Nc2ncc(C#N)c(NCC(F)(F)F)n2)cnn1C` [Example 376, 2-(1,5-dimethyl-1H-pyrazol-4-ylamino)-4-(2,2,2-trifluoroethylamino) pyrimidine-5-carbonitrile] has a Ki [1] of 27.5 nM.
Compound `CCn1ncc(Nc2ncc(C#N)c(OC)n2)c1C` [Example 377, 2-(1-ethyl-5-methyl-1H-pyrazol-4-ylamino)-4-methoxypyrimidine-5-carbonitrile] has a Ki [1] of 75 nM.
`CNc1nc(Nc2cn(CC3CC3)nc2C)ncc1C#N` [Example 380, 2-(1-(cyclopropylmethyl)-3-methyl-1H-ylamino)-4-(methylamino) pyrimidine-5-carbonitrile] showed a Ki [1] of 45 nM.
With `CNc1nc(Nc2cnn(C3CCC(F)(F)CC3)c2C)ncc1C#N` [Example 381, 2-(1-(4,4-difluorocyclohexyl)-5-methyl-1H-pyrazol-4-ylamino)-4-(methylamino) pyrimidine-5-carbonitrile] the Ki [1] was 11 nM.
`Cc1nn(C2COC2)cc1Nc1ncc(C#N)c(NCC(F)(F)F)n1` [Example 382, 2-(3-methyl-1-(oxetan-3-yl)-1H-pyrazol-4-ylamino)-4-(2,2,2-trifluoroethylamino) pyrimidine-5-carbonitrile] gave a Ki [1] of 66 nM.
With `CNc1nc(Nc2cnn(C3CCOCC3)c2Cl)ncc1C#N` [Example 383, 2-(5-chloro-1-(tetrahydro-2H-pyran-4-yl)-1H-pyrazol-4-ylamino)-4-(methylamino) pyrimidine-5-carbonitrile] the Ki [1] was 9.6 nM.
With `CNc1nc(Nc2cnn(C(F)F)c2C)ncc1C#N` [Example 384, 2-(1-Difluoromethyl-5-methyl-1H-pyrazol-4-ylamino)-4-methylamino-pyrimidine-5-carbonitrile] the Ki [1] was 19.1 nM.
With `CCNc1nc(Nc2cnn(C)c2C)ncc1C#N` [Example 385, 2-(1,5-Dimethyl-1H-pyrazol-4-ylamino)-4-ethylamino-pyrimidine-5-carbonitrile] the Ki [1] was 12.7 nM.
`CNc1nc(Nc2cnn(-c3ccc(F)cc3)c2C)ncc1C#N` [Example 386, 2-[1-(4-Fluoro-phenyl)-5-methyl-1H-pyrazol-4-ylamino]-4-methylamino-pyrimidine-5-carbonitrile] gave a Ki [1] of 95.9 nM.
Work on `CCCn1cc(Nc2ncc(C#N)c(NC)n2)c(C)n1` [Example 387, 4-Methylamino-2-(3-methyl-1-propyl-1H-pyrazol-4-ylamino)-pyrimidine-5-carbonitrile] yielded a Ki [1] of 5.4 nM.
In the case of `CNc1nc(Nc2cnn(C3COC3)c2C)ncc1C#N` [Example 388, 4-Methylamino-2-(5-methyl-1-oxetan-3-yl-1H-pyrazol-4-ylamino)-pyrimidine-5-carbonitrile], the Ki [1] is reported as 32.2 nM.
With `CNc1nc(Nc2cn(C3COC3)nc2C)ncc1C#N` [Example 389, 4-Methylamino-2-(3-methyl-1-oxetan-3-yl-1H-pyrazol-4-ylamino)-pyrimidine-5-carbonitrile] the Ki [1] was 37.2 nM.
`CNc1nc(Nc2cnn(-c3cc(F)cc(F)c3)c2C)ncc1C#N` [Example 390, 2-[1-(3,5-Difluoro-phenyl)-5-methyl-1H-pyrazol-4-ylamino]-4-methylamino-pyrimidine-5-carbonitrile] showed a Ki [1] of 241 nM.
Compound `Cc1c(Nc2ncc(C#N)c(OCC(F)F)n2)cnn1C` [Example 391, 4-(2,2-Difluoro-ethoxy)-2-(1,5-dimethyl-1H-pyrazol-4-ylamino)-pyrimidine-5-carbonitrile] has a Ki [1] of 211 nM.
`CNc1nc(Nc2cn(C3CCC(F)(F)CC3)nc2C)ncc1C#N` [Example 392, 2-[1-(4,4-Difluoro-cyclohexyl)-3-methyl-1H-pyrazol-4-ylamino]-4-methylamino-pyrimidine-5-carbonitrile] gave a Ki [1] of 266 nM.
`CNc1nc(Nc2cc(C(=O)N3CCOCC3)nn2C)ncc1Cl` [Example 393, (5-(5-chloro-4-(methylamino)pyrimidin-2-ylamino)-1-methyl-1H-pyrazol-3-yl)(morpholino)methanone] gave a Ki [2] of 160 nM.
Work on `CNc1nc(Nc2cn(C(C)(C)C#N)nc2C)ncc1C(F)(F)F` [Example 394, 2-methyl-2-(3-methyl-4-(4-(methylamino)-5-(trifluoromethyl)pyrimidin-2-ylamino)-1H-pyrazol-1-yl)propanenitrile] yielded a Ki [2] of 0.5 nM.
